Laboratory results: ChEMBL document CHEMBL6103539, “A critical analysis of design, binding pattern and SAR of benzo-fused heteronuclear compounds as VEGFR-2 inhibitors” (Bioorg Med Chem, 2024)

Legend:
MCF7 [1] = assay: cells; settings: Homo sapiens, MCF7, 72 h
Description: Cytotoxicity against human MCF7 cells assessed as reduction in cell viability incubated for 72 hrs by MTT assay

HCT-116 [2] = assay: cells; settings: Homo sapiens, HCT-116, 72 h
Description: Cytotoxicity against human HCT-116 cells assessed as reduction in cell viability incubated for 72 hrs by MTT assay

HepG2 [3] = assay: cells; settings: Homo sapiens, HepG2, 72 h
Description: Cytotoxicity against human HepG2 cells assessed as reduction in cell viability incubated for 72 hrs by MTT assay

MCF7 [4] = assay: Cytotoxicity against human MCF7 cells; type: functional, cell-based
DU-145 = assay: Cytotoxicity against human DU-145 cells; type: functional, cell-based
A549 [5] = assay: Cytotoxicity against human A549 cells; type: functional, cell-based
MCF7 [6] = assay: Antiproliferative activity against human MCF7 cells assessed as cell growth inhibition measured for 24 hrs by MTT assay; type: functional, cell-based; settings: MCF7, 24 h
HepG2 [7] = assay: Antiproliferative activity against human HepG2 cells assessed as cell growth inhibition measured for 24 hrs by MTT assay; type: functional, cell-based; settings: HepG2, 24 h
A549 [8] = assay: Cytotoxicity against human A549 cells assessed as reduction in cell growth incubated for 24 hrs by MTT assay; type: functional, cell-based; settings: A549, 24 h
NCI-H460 = assay: Cytotoxicity against human NCI-H460 cells assessed as reduction in cell growth incubated for 24 hrs by MTT assay; type: functional, cell-based; settings: NCI-H460, 24 h
[9] = target: T1, Vascular endothelial growth factor receptor 2 (Homo sapiens, UniProt P35968); assay: Inhibition of GST-tagged human recombinant VEGFR2 at 10 uM using Poly(4:1 Glu, Tyr) as substrate by Kinase-Glo Max reagent based luminescence analysis relative to control
UO-31 = assay: Antiproliferative activity against human UO-31 cells assessed as reduction in cell viability incubated for 48 hrs by MTT assay; type: functional, cell-based; settings: UO-31, 48 h
[10] = target: T1, Vascular endothelial growth factor receptor 2; assay: Inhibition of VEGFR-2 (unknown origin)
HCT-116 [11] = assay: Cytotoxicity against human HCT-116 cells assessed as reduction in cell growth by MTT assay; type: functional, cell-based
MCF7 [12] = assay: Cytotoxicity against human MCF7 cells assessed as reduction in cell growth by MTT assay; type: functional, cell-based
HepG2 [13] = assay: Cytotoxicity against human HepG2 cells assessed as reduction in cell growth by MTT assay; type: functional, cell-based
[14] = target: T1, Vascular endothelial growth factor receptor 2; assay: Inhibition of human VEGFR-2 by ELISA method
[15] = target: T1, Vascular endothelial growth factor receptor 2; assay: Inhibition of VEGFR-2 in human MCF7 cells by ELISA method; type: cell-based
MCF7 [16] = assay: Cytotoxicity against human MCF7 cells assessed as reduction in cell viability incubated for 48 hrs by MTT assay; type: functional, cell-based; settings: MCF7, 48 h
[17] = Cytotoxicity against human MDA-MB-435 cells assessed as reduction in cell viability incubated for 72 hrs by CCK-8 assay; type: toxicity, cell-based
[18] = Cytotoxicity against human A549 cells assessed as reduction in cell viability incubated for 72 hrs by CCK-8 assay; type: toxicity, cell-based
HeLa = assay: Cytotoxicity against human HeLa cells assessed as reduction in cell viability incubated for 72 hrs by CCK-8 assay; type: functional, cell-based
[19] = Cytotoxicity against human HUVEC cells assessed as reduction in cell viability incubated for 72 hrs by CCK-8 assay; type: toxicity, cell-based
HT-29 = assay: Cytotoxicity against human HT-29 cells assessed as reduction in cell viability incubated for 72 hrs by CCK-8 assay; type: functional, cell-based; settings: HT-29, 72 h
[20] = target: T1, Vascular endothelial growth factor receptor 2; assay: Inhibition of VEGFR-2 (unknown origin) at 1 uM by ELISA method relative to control
MCF7 [21] = assay: Cytotoxicity against human MCF7 cells assessed as reduction in cell viability incubated for 48 hrs by SRB assay; type: functional, cell-based; settings: MCF7, 48 h
[22] = target: T1, Vascular endothelial growth factor receptor 2; assay: Inhibition of VEGFR2 in human MCF7 cells by horseradish peroxidase-coupled TMB substrate based ELISA; type: cell-based

T1 sequence (P35968 whole entry): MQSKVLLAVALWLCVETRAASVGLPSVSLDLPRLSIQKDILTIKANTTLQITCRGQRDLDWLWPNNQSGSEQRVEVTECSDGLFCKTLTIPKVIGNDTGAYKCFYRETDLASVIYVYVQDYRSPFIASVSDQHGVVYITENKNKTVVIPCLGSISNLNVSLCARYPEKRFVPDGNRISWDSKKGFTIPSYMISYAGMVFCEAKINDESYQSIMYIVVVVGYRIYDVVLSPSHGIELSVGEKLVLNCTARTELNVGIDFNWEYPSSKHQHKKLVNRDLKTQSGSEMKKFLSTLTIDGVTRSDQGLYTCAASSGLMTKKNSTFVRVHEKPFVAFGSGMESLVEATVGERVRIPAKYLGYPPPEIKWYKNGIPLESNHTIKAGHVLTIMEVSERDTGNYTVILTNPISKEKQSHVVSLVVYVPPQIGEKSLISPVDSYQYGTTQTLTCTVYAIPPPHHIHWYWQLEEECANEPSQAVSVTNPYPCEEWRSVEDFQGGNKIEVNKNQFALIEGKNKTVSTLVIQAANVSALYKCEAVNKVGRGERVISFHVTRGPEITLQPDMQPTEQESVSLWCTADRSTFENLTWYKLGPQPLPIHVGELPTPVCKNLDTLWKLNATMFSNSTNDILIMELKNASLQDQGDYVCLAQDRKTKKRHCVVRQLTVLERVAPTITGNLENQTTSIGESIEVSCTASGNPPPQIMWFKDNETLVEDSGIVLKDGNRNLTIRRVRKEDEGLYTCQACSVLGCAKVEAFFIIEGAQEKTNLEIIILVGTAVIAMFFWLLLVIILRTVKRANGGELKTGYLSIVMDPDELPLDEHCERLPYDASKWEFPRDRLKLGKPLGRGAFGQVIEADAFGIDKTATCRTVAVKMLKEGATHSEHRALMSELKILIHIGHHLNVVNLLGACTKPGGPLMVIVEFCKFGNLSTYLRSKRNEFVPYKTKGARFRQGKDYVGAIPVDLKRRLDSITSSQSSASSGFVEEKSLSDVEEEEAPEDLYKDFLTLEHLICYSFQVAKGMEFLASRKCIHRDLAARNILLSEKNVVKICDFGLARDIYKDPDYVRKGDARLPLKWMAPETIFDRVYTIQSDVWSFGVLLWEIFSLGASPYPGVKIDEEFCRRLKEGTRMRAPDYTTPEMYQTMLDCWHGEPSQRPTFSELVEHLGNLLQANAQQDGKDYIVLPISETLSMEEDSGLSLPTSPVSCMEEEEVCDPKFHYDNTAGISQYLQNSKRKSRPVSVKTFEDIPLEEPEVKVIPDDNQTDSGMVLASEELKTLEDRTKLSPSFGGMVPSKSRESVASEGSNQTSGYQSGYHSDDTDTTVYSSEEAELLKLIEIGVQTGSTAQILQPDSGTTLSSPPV

Question: For `CCNC(=S)NS(=O)(=O)c1ccc(NC(=O)CCSc2nc3cc(C)ccc3o2)cc1`, which IC50 (MCF7 [1]) is on record?
Answer: Its IC50 is 15.7 µM.

Question: What about the IC50 (HCT-116 [2]) of the same compound?
Answer: Its IC50 is 12.5 µM.

Question: What about the IC50 (HepG2 [3]) of the same compound?
Answer: Its IC50 is 9.95 µM.

Question: For `COc1cc(/C=C2/C=C(c3nc4ccccc4[nH]3)NC2=O)ccc1O`, which IC50 (MCF7 [4]) is on record?
Answer: The IC50 was 7.3 µM.

Question: And the IC50 (DU-145)?
Answer: Its IC50 is 8.7 µM.

Question: What about the IC50 (A549 [5]) of the same compound?
Answer: Its IC50 is 9.6 µM.

Question: Which IC50 (MCF7 [1]) does the source give for `Cc1ccc2oc(SCCC(=O)Nc3ccc(S(=O)(=O)NC(=O)Nc4ccccc4)cc3)nc2c1` here?
Answer: Its IC50 is 10.1 µM.

Question: What about the IC50 (HCT-116 [2]) of the same compound?
Answer: The IC50 was 9.1 µM.

Question: And the IC50 (HepG2 [3])?
Answer: The IC50 was 6.58 µM.

Question: With `Cc1ccc2oc(SCC(=O)Nc3ccc(C(=O)Nc4ccc(O)cc4)cc3)nc2c1` as the compound, how does the IC50 (MCF7 [6]) read?
Answer: Its IC50 is 18.2 µM.

Question: And the IC50 (HepG2 [7])?
Answer: Its IC50 is 7.01 µM.

Question: What does the source list for `COc1ccc(/C=N/N=C(/c2ccccc2)c2ccc3nc(-c4ccc(Cl)cc4)[nH]c3c2)cc1`?
Answer: IC50 (A549 [8]): 3.58 µM; IC50 (NCI-H460): 1.71 µM; inhibition [9]: 86.2%

Question: Which IC50 (UO-31) does the source give for `O=C(CCc1nnc2sc(COc3ccccc3)nn12)c1nc2cc([N+](=O)[O-])ccc2[nH]1` here?
Answer: Its IC50 is 32.9 µM.

Question: Which IC50 [10] does the source give for `COc1cc(/C=N/NC(=O)c2nnn(Cc3nc4ccccc4[nH]3)c2C)ccc1O` here?
Answer: The IC50 was 0.229 µM.

Question: And the IC50 (HCT-116 [11])?
Answer: The IC50 was 3.34 µM.

Question: What about the IC50 (MCF7 [12]) of the same compound?
Answer: Its IC50 is 7.11 µM.

Question: And the IC50 (HepG2 [13])?
Answer: The IC50 was 10.9 µM.

Question: Which results are given for `Clc1cccc(Cl)c1CNc1cccc(-c2nc3ccccc3[nH]2)c1`?
Answer: IC50 [14]: 0.0067 µM; IC50 [15]: 0.0069 µM; IC50 (MCF7 [16]): 6.3 µM

Question: For `Cn1c(COC(=O)c2c[nH]c3ccccc23)nc2ccccc21`, which IC50 at 72 h [17] is on record?
Answer: Its IC50 at 72 h is 0.54 µM.

Question: And the IC50 at 72 h [18]?
Answer: The IC50 at 72 h was 0.21 µM.

Question: And the IC50 (HeLa)?
Answer: The IC50 was 0.27 µM.

Question: What about the IC50 at 72 h [19] of the same compound?
Answer: Its IC50 at 72 h is 0.26 µM.

Question: And the IC50 (HT-29)?
Answer: Its IC50 is 0.36 µM.

Question: And the inhibition [20]?
Answer: The inhibition was 33.9%.

Question: Which IC50 [14] does the source give for `O=[N+]([O-])c1ccc(CNc2cccc(-c3nc4ccccc4[nH]3)c2)cc1` here?
Answer: Its IC50 is 0.0067 µM.

Question: And the IC50 [15]?
Answer: The IC50 was 0.0067 µM.

Question: And the IC50 (MCF7 [16])?
Answer: Its IC50 is 3.37 µM.

Question: With `Cc1c(C(=O)NNC(=S)Nc2ccc(Cl)cc2)nnn1Cc1nc2ccccc2[nH]1` as the compound, how does the IC50 (HCT-116 [11]) read?
Answer: Its IC50 is 8.34 µM.

Question: And the IC50 (MCF7 [12])?
Answer: The IC50 was 6.81 µM.

Question: What about the IC50 (HepG2 [13]) of the same compound?
Answer: Its IC50 is 7.8 µM.

Question: What does the source list for `COc1cc(/C=C2/C=C(c3nc4ccccc4[nH]3)NC2=O)cc(OC)c1OC`?
Answer: IC50 (MCF7 [4]): 7.2 µM; IC50 (DU-145): 7.7 µM; IC50 (A549 [5]): 8.3 µM

Question: Which IC50 (MCF7 [21]) does the source give for `COC(=O)COc1ccc(/C=N/NC(=O)COc2ccc(-c3nc4ccccc4s3)cc2OC)cc1OC` here?
Answer: Its IC50 is 21.9 µM.

Question: What about the IC50 [22] of the same compound?
Answer: Its IC50 is 0.13 µM.

Question: With `O=C(CCSc1nc2ccccc2o1)Nc1ccc(S(=O)(=O)NC(=O)Nc2ccccc2)cc1` as the compound, how does the IC50 (MCF7 [1]) read?
Answer: The IC50 was 9.95 µM.

Question: What about the IC50 (HCT-116 [2]) of the same compound?
Answer: Its IC50 is 9.52 µM.

Question: What about the IC50 (HepG2 [3]) of the same compound?
Answer: The IC50 was 8.75 µM.

Question: Which results are given for `COc1ccc2[nH]cc(C(=O)OCc3nc4ccccc4n3C)c2c1`?
Answer: IC50 at 72 h [17]: 0.45 µM; IC50 at 72 h [18]: 0.3 µM; IC50 (HeLa): 0.26 µM; IC50 at 72 h [19]: 0.32 µM; IC50 (HT-29): 0.26 µM; inhibition [20]: 36.7%

Question: For `CCNC(=S)NS(=O)(=O)c1ccc(NC(=O)CCSc2nc3ccccc3o2)cc1`, which IC50 (MCF7 [1]) is on record?
Answer: Its IC50 is 12.3 µM.

Question: What about the IC50 (HCT-116 [2]) of the same compound?
Answer: Its IC50 is 7.91 µM.

Question: What about the IC50 (HepG2 [3]) of the same compound?
Answer: The IC50 was 8.1 µM.

Question: With `O=C(CCSc1nc2ccccc2o1)Nc1nnc(-c2ccccc2)s1` as the compound, how does the IC50 (MCF7 [1]) read?
Answer: Its IC50 is 7.89 µM.

Question: What about the IC50 (HCT-116 [2]) of the same compound?
Answer: Its IC50 is 6.99 µM.

Question: And the IC50 (HepG2 [3])?
Answer: Its IC50 is 9.97 µM.

Question: With `O=C(OCc1nc2ccccc2[nH]1)c1c[nH]c2ccccc12` as the compound, how does the IC50 at 72 h [17] read?
Answer: The IC50 at 72 h was 0.37 µM.

Question: What about the IC50 at 72 h [18] of the same compound?
Answer: Its IC50 at 72 h is 0.54 µM.

Question: What about the IC50 (HeLa) of the same compound?
Answer: The IC50 was 0.19 µM.

Question: What about the IC50 at 72 h [19] of the same compound?
Answer: Its IC50 at 72 h is 0.56 µM.

Question: What about the IC50 (HT-29) of the same compound?
Answer: The IC50 was 0.19 µM.

Question: And the inhibition [20]?
Answer: Its inhibition is 34%.

Question: For `Cn1c(COC(=O)c2c[nH]c3ccc(Br)cc23)nc2ccccc21`, which IC50 at 72 h [17] is on record?
Answer: The IC50 at 72 h was 0.27 µM.

Question: What about the IC50 at 72 h [18] of the same compound?
Answer: Its IC50 at 72 h is 0.45 µM.

Question: And the IC50 (HeLa)?
Answer: The IC50 was 0.33 µM.

Question: What about the IC50 at 72 h [19] of the same compound?
Answer: The IC50 at 72 h was 0.32 µM.

Question: And the IC50 (HT-29)?
Answer: The IC50 was 0.33 µM.

Question: What about the inhibition [20] of the same compound?
Answer: The inhibition was 28.8%.

Question: For `Cc1ccc2oc(SCCC(=O)Nc3ccc(S(=O)(=O)NC(=O)NC4CCCCC4)cc3)nc2c1`, which IC50 (MCF7 [1]) is on record?
Answer: Its IC50 is 8.67 µM.

Question: What about the IC50 (HCT-116 [2]) of the same compound?
Answer: Its IC50 is 6.93 µM.

Question: And the IC50 (HepG2 [3])?
Answer: Its IC50 is 4.13 µM.

Question: What does the source list for `O=[N+]([O-])c1ccc(NC(=S)Nc2cccc(-c3nc4ccccc4[nH]3)c2)cc1`?
Answer: IC50 [14]: 0.0067 µM; IC50 [15]: 0.0089 µM; IC50 (MCF7 [16]): 5.84 µM
